# Patent US12685297B2, “Genetically modified mouse, methods for producing the same, and uses thereof” (MacKay Memorial Hospital, priority 2023, dated 2026)
# Test system: GYP.Mur knock-in mice and control mice
# Assay: Evaluation of anti-hypertensive medications: blood pressure after oral gavage
# Format: in vivo, mouse (C57BL/6J)
# Protocol: Mouse BP was measured using an 8-channel non-invasive blood pressure system, a conventional instrument for murine BP measurements with about 99% correlation to the invasive telemetry approach. The BP system is a traditional, tail-cuff method, with a volume-pressure recording (VPR) sensor-cuff (similar to a stethoscope) and an occlusion cuff (similar to the arm cuff for conventional human BP measurement). The instrument settings in this study were 5 acclimation cycles, 15 cycles per set, 250 mmHg as the maximal occlusion pressure, and 20 seconds for deflation. Before the measurement, the experimenter gently placed a mouse in a holder or at the entry point of the holder, from which the mouse could voluntarily walked into the holder. An occlusion cuff and a VPR cuff were then fitted onto the mouse tail. The holder carrying a cuffed mouse inside was moved to the warming platform and covered with a thermal blanket, which ensured the temperature of the tail to be within 32-35° C. during volume-pressure-based BP measurements. Invalid measurements were mostly due to unmet tail temperature or restless states of the animal, which were identified and excluded. After BP measurements, the mice were immediately put back to their own cage. The body weight (BW) of each mouse was measured for preparation of individual anti-hypertensive doses (in mg drug per Kg BW). The mice were individually administered by oral gavage of an anti-hypertensive drug mixed in 100 μL autoclaved ddH2O. The dose and maximal efficacy of an anti-hypertensive drug was determined based on the degrees of BP drop within an hour of anti-hypertensive administration. One dose of an anti-hypertensive drug was tested on a single day. On the morning of the test day, the blood pressure of GYP.Mur knock-in mice and age-matched control mice (wild-type mice) was first measured. Only the mice with SBP>120 mmHg on that day were tested with an anti-hypertensive medication. The BP and heart rates (HR) of the mice were measured at the 1st, 3rd, 5th, and the 24th hour post-medication. […]
SMILES,"duration of sustained BP-lowering effects (following oral gavage, control and GYP.Mur knock-in mice)","BP-lowering effects at the 3rd hour post-oral gavage (3rd hour post-oral gavage, compared with one hour, data not shown)","time after medication at which BP was lowered most substantially (oral gavage, control and GYP.Mur knock-in mice, data not shown)"
CCOC(=O)C1=C(COCCN)NC(C)=C(C(=O)OC)C1c1ccccc1Cl (stereo not drawn) [amlodipine],5 h,–,–
C[C@H](CS)C(=O)N1CCC[C@H]1C(=O)O [captopril],–,slightly diminished,one
